Laboratory results published in ChEMBL document CHEMBL5532639, “Heterocyclic pyrimidine derivatives as promising antibacterial agents” (Eur J Med Chem, 2023).
In brackets after ≈: the same amount, converted by molar mass.

Assays:
Escherichia coli [1] = assay: Antibacterial activity against Escherichia coli assessed as bacterial growth inhibition incubated for 18 hrs by CLSI protocol based Mueller-Hinton broth assay; type: functional
Pseudomonas aeruginosa [2] = assay: Antibacterial activity against Pseudomonas aeruginosa assessed as reduction in bacterial growth by broth microdilution method; type: functional
Staphylococcus aureus [3] = assay: Antibacterial activity against Staphylococcus aureus assessed as reduction in microbial growth by CLSI based broth microdilution method; type: functional
Streptococcus pyogenes = assay: Antibacterial activity against Streptococcus pyogenes assessed as reduction in microbial growth by CLSI based broth microdilution method; type: functional
Streptococcus pneumoniae [4] = assay: Antibacterial activity against Streptococcus pneumoniae; type: functional
Streptococcus pneumoniae [5] = assay: Antimicrobial activity against Streptococcus […] assessed as bacterial growth inhibition by measuring zone of inhibition at 50 ug/ml by agar cup diffusion assay; type: functional; conditions: read-out: IZ
Bacillus subtilis [6] = assay: Antimicrobial activity against Bacillus subtilis RCMB 010069 assessed as bacterial growth inhibition by measuring zone of inhibition at 50 ug/ml by agar cup diffusion assay; type: functional; conditions: read-out: IZ
Bacillus subtilis [7] = assay: Antibacterial activity against Bacillus subtilis; type: functional
Staphylococcus aureus [8] = assay: Antibacterial activity against Staphylococcus aureus; type: functional
Salmonella typhimurium [9] = assay: Antibacterial activity against Salmonella typhimurium DT104 assessed as reduction in bacterial growth; type: functional, Salmonella enterica subsp. enterica serovar Typhimurium; conditions: Salmonella enterica
Escherichia coli [10] = assay: Antibacterial activity against Escherichia coli ATCC 25922 assessed as bacterial growth inhibition; type: functional
Staphylococcus aureus [11] = assay: Antibacterial activity against Staphylococcus aureus ATCC 3750 assessed as reduction in bacterial growth; type: functional
Bacillus subtilis [12] = assay: Antibacterial activity against Bacillus subtilis 6633 assessed as reduction in bacterial growth; type: functional
Staphylococcus aureus [13] = assay: Antibacterial activity against Staphylococcus aureus assessed as bacterial growth inhibition; type: functional
Escherichia coli [14] = assay: Antibacterial activity against Escherichia coli assessed as reduction in bacterial growth by broth microdilution method; type: functional
Pseudomonas aeruginosa [15] = assay: Antibacterial activity against Pseudomonas aeruginosa assessed as reduction in microbial growth by broth microdilution method; type: functional
Escherichia coli [16] = assay: Antibacterial activity Escherichia coli assessed as reduction in bacterial growth; type: functional
Pseudomonas aeruginosa [17] = assay: Antibacterial activity against Pseudomonas aeruginosa assessed as reduction in microbial growth after 18 hrs by MTT based broth dilution method; type: functional
Klebsiella pneumoniae = assay: Antibacterial activity against Klebsiella pneumoniae assessed as reduction in bacterial growth by broth microdilution method; type: functional
Bacillus subtilis [18] = assay: Antibacterial activity against Bacillus subtilis assessed as reduction in bacterial cell viability by well plate method; type: functional
[19] = tested on: Staphylococcus epidermidis; assay: Antibacterial activity against Staphylococcus epidermidis assessed as reduction in microbial growth; type: functional
Escherichia coli [20] = assay: Antibacterial activity against Escherichia coli assessed as reduction in bacterial growth; type: functional
Pseudomonas aeruginosa [21] = assay: Antibacterial activity against Pseudomonas aeruginosa assessed as reduction in bacterial growth; type: functional
Staphylococcus aureus [22] = assay: Antibacterial activity against Staphylococcus aureus assessed as reduction in microbial growth; type: functional
Klebsiella sp. = assay: Antibacterial activity against Klebsiella sp. assessed as inhibition of bacterial growth; type: functional
Pneumocystis carinii = assay: Antifungal activity against Pneumocystis carinii assessed as reduction in fungal growth; type: functional, organism-based
Toxoplasma gondii = assay: Antiparasitic activity against Toxoplasma gondii assessed as parasitic growth inhibition; type: functional, organism-based
Pseudomonas aeruginosa [23] = assay: Antibacterial activity against Pseudomonas aeruginosa; type: functional
Escherichia coli [24] = assay: Antibacterial activity against Escherichia coli; type: functional
Staphylococcus aureus [25] = assay: Antibacterial activity against Staphylococcus aureus assessed as bacterial growth inhibition by measuring zone of inhibition at 50 ug/ml by agar cup diffusion assay; type: functional; conditions: read-out: IZ
Escherichia coli [26] = assay: Antibacterial activity against Escherichia coli assessed as bacterial growth inhibition by measuring zone of inhibition at 50 ug/ml by agar cup diffusion assay; type: functional; conditions: read-out: IZ
Salmonella typhimurium [27] = assay: Antibacterial activity against Salmonella typhimurium DT104 assessed as bacterial growth inhibition by measuring zone of inhibition at 50 ug/ml by agar cup diffusion assay; type: functional, Salmonella enterica subsp. enterica serovar Typhimurium; conditions: Salmonella enterica, read-out: IZ
Bacillus subtilis [28] = assay: Antibacterial activity against Bacillus subtilis assessed as bacterial growth inhibition by measuring zone of inhibition at 50 ug/ml by agar cup diffusion assay; type: functional; conditions: read-out: IZ
Salmonella typhimurium [29] = assay: Antimicrobial activity against Salmonella typhimurium DT104 assessed as diameter of inhibition zone incubated for 24 hrs by well diffusion assay; type: functional, Salmonella enterica subsp. enterica serovar Typhimurium
Micrococcus luteus = assay: Antimicrobial activity against Micrococcus luteus assessed as diameter of inhibition zone incubated for 24 hrs by well diffusion assay; type: functional
Pseudomonas aeruginosa [30] = assay: Antimicrobial activity against Pseudomonas aeruginosa assessed as diameter of inhibition zone incubated for 24 hrs by well diffusion assay; type: functional
Bacillus subtilis [31] = assay: Antimicrobial activity against Bacillus subtilis assessed as diameter of inhibition zone incubated for 24 hrs by well diffusion assay; type: functional

Q: Which results are given for `CC1(C)S[C@@H]2[C@H](NC(=O)[C@H](N)c3ccccc3)C(=O)N2[C@H]1C(=O)O` [AMPICILLIN]?
A: MIC (Escherichia coli [1]): 100 µg/mL (≈ 286 µM); MIC (Pseudomonas aeruginosa [2]): 100 µg/mL (≈ 286 µM); MIC (Staphylococcus aureus [3]): 250 µg/mL; MIC (Streptococcus pyogenes): 100 µg/mL; MIC (Streptococcus pneumoniae [4]): 0.98 µg/mL (≈ 2.8 µM); zone of inhibition at 50 µg/mL (Streptococcus pneumoniae [5]): 23.8 mm; zone of inhibition at 50 µg/mL (Bacillus subtilis [6]): 32.4 mm; MIC (Bacillus subtilis [7]): 0.49 µg/mL (≈ 1.4 µM); MIC (Staphylococcus aureus [8]): 0.49 µg/mL (≈ 1.4 µM); MIC (Salmonella typhimurium [9]): 49 µg/mL (≈ 140 µM); MIC (Escherichia coli [10]): 4 µg/mL (≈ 11.4 µM); MIC (Staphylococcus aureus [11]): 50 µg/mL (≈ 143 µM); MIC (Bacillus subtilis [12]): 4 µg/mL (≈ 11.4 µM)

Q: For `COc1ccc(C2C3=C(CCCC3=O)Oc3nc(-c4cc5ccccc5oc4=O)[nH]c(=O)c32)cc1OC` (stereo unspecified), which MIC (Staphylococcus aureus [13]) is on record?
A: The MIC was 50 µg/mL (≈ 100 µM).

Q: And the MIC (Escherichia coli [14])?
A: The MIC was 12.5 µg/mL (≈ 25.1 µM).

Q: What about the MIC (Pseudomonas aeruginosa [15]) of the same compound?
A: The MIC was 50 µg/mL.

Q: And the MIC (Escherichia coli [16])?
A: Its MIC is 50 µg/mL (≈ 100 µM).

Q: And the MIC (Pseudomonas aeruginosa [17])?
A: Its MIC is 50 µg/mL.

Q: What about the MIC (Klebsiella pneumoniae) of the same compound?
A: The MIC was 50 µg/mL (≈ 100 µM).

Q: What about the MIC (Bacillus subtilis [18]) of the same compound?
A: The MIC was 50 µg/mL (≈ 100 µM).

Q: What about the MIC [19] of the same compound?
A: Its MIC is 100 µg/mL.

Q: With `NC(=O)N/N=C/c1ccc([N+](=O)[O-])o1` [NITROFURAZONE] as the compound, how does the MIC (Escherichia coli [20]) read?
A: Its MIC is 12.5 µg/mL (≈ 63.1 µM).

Q: What about the MIC (Pseudomonas aeruginosa [21]) of the same compound?
A: The MIC was 6 µg/mL (≈ 30.3 µM).

Q: What about the MIC (Staphylococcus aureus [22]) of the same compound?
A: The MIC was 12.5 µg/mL.

Q: What about the MIC (Klebsiella sp.) of the same compound?
A: Its MIC is 12.5 µg/mL (≈ 63.1 µM).

Q: `COc1ccc(-c2cc(C#Cc3ccc(C(=O)O)cc3)cc(Cc3cnc(N)nc3N)c2)cc1OC` was tested. Which IC50 (Pneumocystis carinii) did it give?
A: The IC50 was 1200 nM.

Q: What about the IC50 (Toxoplasma gondii) of the same compound?
A: The IC50 was 420 nM.

Q: What does the source list for `COc1ccc2cc(-c3nc4sc5c(c4c(=O)n3N)CCCC5)ccc2c1`?
A: MIC (Escherichia coli [20]): 12.5 µg/mL (≈ 33.1 µM); MIC (Pseudomonas aeruginosa [21]): 12.5 µg/mL (≈ 33.1 µM); MIC (Staphylococcus aureus [22]): 12.5 µg/mL; MIC (Klebsiella sp.): 12.5 µg/mL (≈ 33.1 µM)

Q: How did the MIC (Streptococcus pneumoniae [4]) turn out when `O=c1[nH]c(=S)[nH]c2nc(-c3ccc(Cl)cc3)cc(-c3ccccc3)c12` was run?
A: Its MIC is 0.98 µg/mL (≈ 2.68 µM).

Q: And the MIC (Bacillus subtilis [7])?
A: The MIC was 1.95 µg/mL (≈ 5.33 µM).

Q: What about the MIC (Staphylococcus aureus [8]) of the same compound?
A: Its MIC is 3.9 µg/mL (≈ 10.7 µM).

Q: And the MIC (Pseudomonas aeruginosa [23])?
A: Its MIC is 3.9 µg/mL (≈ 10.7 µM).

Q: What about the MIC (Escherichia coli [24]) of the same compound?
A: Its MIC is 0.98 µg/mL (≈ 2.68 µM).

Q: Which MIC (Staphylococcus aureus [13]) does the source give for `O=C1CCCC2=C1C(c1ccc(Cl)cc1)c1c(nc(-c3cc4ccccc4oc3=O)[nH]c1=O)O2` (stereo unspecified) here?
A: Its MIC is 100 µg/mL (≈ 211 µM).

Q: And the MIC (Escherichia coli [14])?
A: The MIC was 50 µg/mL (≈ 106 µM).

Q: What about the MIC (Pseudomonas aeruginosa [15]) of the same compound?
A: Its MIC is 100 µg/mL.

Q: What about the MIC (Escherichia coli [16]) of the same compound?
A: Its MIC is 100 µg/mL (≈ 211 µM).

Q: What about the MIC (Pseudomonas aeruginosa [17]) of the same compound?
A: Its MIC is 100 µg/mL.

Q: And the MIC (Klebsiella pneumoniae)?
A: Its MIC is 100 µg/mL (≈ 211 µM).

Q: And the MIC (Bacillus subtilis [18])?
A: Its MIC is 25 µg/mL (≈ 52.9 µM).

Q: What about the MIC [19] of the same compound?
A: The MIC was 50 µg/mL.

Q: Which results are given for `CN(C)[C@@H]1C(O)=C(C(N)=O)C(=O)[C@@]2(O)C(O)=C3C(=O)c4c(O)cccc4[C@@](C)(O)[C@H]3C[C@@H]12` [TETRACYCLINE]?
A: zone of inhibition at 50 µg/mL (Staphylococcus aureus [25]): 19 mm; zone of inhibition at 50 µg/mL (Escherichia coli [26]): 15 mm; zone of inhibition at 50 µg/mL (Salmonella typhimurium [27]): 24 mm; zone of inhibition at 50 µg/mL (Bacillus subtilis [28]): 21 mm; inhibition zone (IZ) (Salmonella typhimurium [29]): 8 mm; inhibition zone (IZ) (Micrococcus luteus): 16 mm; inhibition zone (IZ) (Pseudomonas aeruginosa [30]): 18 mm; inhibition zone (IZ) (Bacillus subtilis [31]): 14 mm

Q: What does the source list for `CC[C@H]1OC(=O)[C@H](C)[C@@H](O[C@H]2C[C@@](C)(OC)[C@@H](O)[C@H](C)O2)[C@H](C)[C@@H](O[C@@H]2O[C@H](C)C[C@H](N(C)C)[C@H]2O)[C@](C)(O)C[C@@H](C)C(=O)[C@H](C)[C@@H](O)[C@]1(C)O` [ERYTHROMYCIN]?
A: inhibition zone (IZ) (Salmonella typhimurium [29]): 7 mm; inhibition zone (IZ) (Micrococcus luteus): 10 mm; inhibition zone (IZ) (Pseudomonas aeruginosa [30]): 10 mm; inhibition zone (IZ) (Bacillus subtilis [31]): 12 mm
